From US10294229B2, “Heteroaryl substituted aminopyridine compounds” (BRISTOL-MYERS SQUIBB COMPANY, priority 2015, dated 2019)

Assays:
[1] = tested on: Human whole blood stimulated with a TLR2 agonist (lipoteichoic acid), IL-6 levels; experiment: IRAK4 Whole Blood Assay; assay type: cell-based; conditions: lipoteichoic acid 10 μg/mL
Method: Human whole blood containing the anti-coagulant ACD-A was plated in 384-well plate (25 μL/well) and incubated with compounds for 60 minutes at 37° C. in a 5% CO2 incubator. The blood was stimulated with a TLR2 agonist, 10 μg/mL final concentration of lipoteichoic acid (Invivogen, San Diego, Calif.) in 25 μL RPMI (Gibco) for 5 hours in a 5% CO2 incubator. At the end of the incubation, plates were centrifuged at 2300 rpm for 5 minutes. Supernatants were harvested and analyzed for IL-6 levels by Flow Cytometry beads assay (BD Biosciences, San Jose, Calif.).

IRAK4 = IRAK4 (Homo sapiens (Human), UniProt Q9NWZ3); experiment: IRAK4 Inhibition Assay; assay type: biochemical; conditions: ATP 500 μM; IRAK4 0.6 nM
Chain of IRAK4 (Q9NWZ3 whole entry, species assumed): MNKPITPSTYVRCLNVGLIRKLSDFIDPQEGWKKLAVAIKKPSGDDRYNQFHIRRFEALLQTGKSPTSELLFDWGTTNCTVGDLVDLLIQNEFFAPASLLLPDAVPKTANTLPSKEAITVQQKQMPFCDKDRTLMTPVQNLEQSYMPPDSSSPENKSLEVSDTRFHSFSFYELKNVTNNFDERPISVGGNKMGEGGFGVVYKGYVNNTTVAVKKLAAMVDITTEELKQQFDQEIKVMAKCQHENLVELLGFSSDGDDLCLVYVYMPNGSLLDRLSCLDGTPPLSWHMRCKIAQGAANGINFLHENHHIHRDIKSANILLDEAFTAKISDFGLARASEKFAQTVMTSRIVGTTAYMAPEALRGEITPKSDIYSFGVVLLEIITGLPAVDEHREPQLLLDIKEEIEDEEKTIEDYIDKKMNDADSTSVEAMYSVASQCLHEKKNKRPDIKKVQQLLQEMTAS
How it was run: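 Mobility-shift readout: phosphorylated and unphosphorylated fluorescent peptide (1.5 μM) resolved by electrophoresis after a 60 min room-temperature reaction stopped with EDTA. Reaction holds 0.6 nM IRAK4, 500 μM ATP and 1.6% DMSO in HEPES pH 7.2/MgCl2/Brij 35/DTT buffer; percent inhibition set against vehicle and no-enzyme controls.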

SMILES	EC50 ([1]; Homo sapiens) [nM]	IC50 (IRAK4) [nM]	EC50 [1] [nM]
CC(C)Nc1cc(-n2ncc3cc(C#N)cnc32)ncc1-n1cc(CC(F)C(C)(C)O)nn1 (racemic) [345, racemic, (±)-1-(5-(4-(2-fluoro-3-hydroxy-3-methylbutyl)-1H-1,2,3-triazol-1-yl)-4-(isopropylamino)pyridin-2-yl)-1H-pyrazolo[3,4-b]pyridine-5-carbonitrile]	270	4	
CC(C)Nc1cc(-n2ncc3cc(C#N)cnc32)ncc1-c1cn([C@@H]2CCC[C@H]2O)nn1 (single isomer, unassigned) [Example 80]		3	590
CC(C)Nc1cc(-n2cnc3cc(C#N)cnc32)ncc1-c1cn([C@@H]2CCC[C@H]2O)nn1 (single isomer, unassigned) [Example 81]	1540	4	
CC(C)Nc1cc(-n2ncc3cc(C#N)cnc32)ncc1-c1cn([C@@H]2CCC[C@H]2O)nn1 (single isomer, unassigned) [Example 82]		5	1660
CC(C)Nc1cc(-n2cnc3cc(C#N)cnc32)ncc1-c1cn([C@@H]2CCC[C@H]2O)nn1 (single isomer, unassigned) [Example 83]		5	860
CC(C)Nc1cc(-n2ncc3cc(C#N)cnc32)ncc1-c1cn([C@H](C)[C@H](C)O)nn1 (single isomer, unassigned) [Example 89]		7	930
CC(C)Nc1cc(-n2ncc3cc(C#N)cnc32)ncc1-c1cn([C@@H](C)[C@H](C)O)nn1 (single isomer, unassigned) [Example 91]		5	1920
CC(C)Nc1cc(-n2ncc3cc(C#N)cnc32)ncc1-c1cn([C@@H]2CCN(S(C)(=O)=O)C[C@H]2O)nn1 (single isomer, unassigned) [Example 199]	550	4	
CC(C)Nc1cc(-n2ncc3cc(C#N)cnc32)ncc1-c1cn([C@@H]2CCN(S(C)(=O)=O)C[C@H]2OS(C)(=O)=O)nn1 (single isomer, unassigned) [Example 202]	950	5	
CC(C)Nc1cc(-n2ncc3cc(C#N)cnc32)ncc1-c1cn([C@@H]2CCN(S(C)(=O)=O)C[C@H]2O)nn1 (single isomer, unassigned) [Example 204]		6	710
CC(O)Cc1cn(-c2cnc(-n3ncc4cc(C#N)cnc43)cc2NC(C)C)nn1 (single isomer, unassigned) [Example 265, 1-(5-(4-(2-hydroxypropyl)-1H-1,2,3-triazol-1-yl)-4-(isopropylamino)pyridin-2-yl)-1H-pyrazolo[3,4-b]pyridine-5-carbonitrile]	410	5	
CC(F)Cc1cn(-c2cnc(-n3cnc4cc(C#N)cnc43)cc2NC(C)C)nn1 (single isomer, unassigned) [Example 291, 3-(5-(4-(2-fluoropropyl)-1H-1,2,3-triazol-1-yl)-4-(isopropylamino)pyridin-2-yl)-3H-imidazo[4,5-b]pyridine-6-carbonitrile]	850	14	
CC(F)Cn1cc(-c2cnc(-n3ncc4cc(C#N)cnc43)cc2NC(C)C)nn1 (single isomer, unassigned; enantiomer 2) [Example 167, 1-(5-(1-(2-fluoropropyl)-1H-1,2,3-triazol-4-yl)-4-(isopropylamino)pyridin-2-yl)-1H-pyrazolo[3,4-b]pyridine-5-carbonitrile, enantiomer 2]		7	1030
CC(C)Nc1cc(-n2ccc3cncnc32)ncc1-c1cn(CCO)nn1 [Example 1, 2-(4-(4-(isopropylamino)-6-(7H-pyrrolo[2,3-d]pyrimidin-7-yl)pyridin-3-yl)-1H-1,2,3-triazol-1-yl)ethanol]	830	7	
CCOC(=O)Cn1cc(-c2cnc(-n3ccc4cncnc43)cc2NC(C)C)nn1 [Example 2, ethyl 2-(4-(4-(isopropylamino)-6-(7H-pyrrolo[2,3-d]pyrimidin-7-yl)pyridin-3-yl)-1H-1,2,3-triazol-1-yl)acetate]	10000	1	
CC(C)Nc1cc(-n2ccc3cncnc32)ncc1-c1cn(CCCCCN)nn1 [Example 5, 5-(1-(5-aminopentyl)-1H-1,2,3-triazol-4-yl)-N-isopropyl-2-(7H-pyrrolo[2,3-d]pyrimidin-7-yl)pyridin-4-amine]	2130	3	

SMILES	EC50 ([1]; Homo sapiens) [nM]	IC50 (IRAK4) [nM]	EC50 [1] [nM]
CC(C)Nc1cc(-n2ncc3cc(C#N)cnc32)ncc1-c1cn(C2CCCCC2)nn1 [Example 17, 1-(5-(1-cyclohexyl-1H-1,2,3-triazol-4-yl)-4-(isopropylamino)pyridin-2-yl)-1H-pyrazolo[3,4-b]pyridine-5-carbonitrile]	1970	5	
CC(C)Nc1cc(-n2ncc3cc(C#N)cnc32)ncc1-c1cn(-c2ccccc2F)nn1 [Example 20, 1-(5-(1-(2-fluorophenyl)-1H-1,2,3-triazol-4-yl)-4-(isopropylamino)pyridin-2-yl)-1H-pyrazolo [3,4-b]pyridine-5-carbonitrile]	20000	7	
CC(C)Nc1cc(-n2ncc3cc(C#N)cnc32)ncc1-c1cn(C2CCN(C)C2=O)nn1 (stereo not drawn) [Example 22, 1-(4-(isopropylamino)-5-(1-(1-methyl-2-oxopyrrolidin-3-yl)-1H-1,2,3-triazol-4-yl)pyridin-2-yl)-1H-pyrazolo[3,4-b]pyridine-5-carbonitrile]		4	490
CC(C)Nc1cc(-n2ncc3cc(C#N)cnc32)ncc1-c1cn(CCCO)nn1 [Example 28, 1-(5-(1-(3-hydroxypropyl)-1H-1,2,3-triazol-4-yl)-4-(isopropylamino)pyridin-2-yl)-1H-pyrazolo [3,4-b]pyridine-5-carbonitrile]	1910	6	
CCn1cc(-c2cnc(-n3ncc4cc(Cl)cnc43)cc2NC(C)C)nn1 [Example 39, 2-(5-chloro-1H-pyrazolo[3,4-b]pyridin-1-yl)-5-(1-ethyl-1H-1,2,3-triazol-4-yl)-N-isopropylpyridin-4-amine]	4300	14	
CC(C)Nc1cc(-n2ncc3cc(C#N)cnc32)ncc1-c1cn(CCCF)nn1 [Example 44, 1-(5-(1-(3-fluoropropyl)-1H-1,2,3-triazol-4-yl)-4-(isopropylamino)pyridin-2-yl)-1H-pyrazolo [3,4-b]pyridine-5-carbonitrile]	630	7	
CC(C)Nc1cc(-n2ncc3cc(C#N)c(N)nc32)ncc1-c1cn(CCCF)nn1 [Example 46, 6-amino-1-(5-(1-(3-fluoropropyl)-1H-1,2,3-triazol-4-yl)-4-(isopropylamino)pyridin-2-yl)-1H-pyrazolo[3,4-b]pyridine-5-carbonitrile]	490	14	
CC(C)Nc1cc(-n2cnc3cc(C#N)cnc32)ncc1-c1cn(CCc2ccccc2)nn1 [Example 57, 3-(4-(isopropylamino)-5-(1-phenethyl-1H-1,2,3-triazol-4-yl)pyridin-2-yl)-3H-imidazo[4,5-b]pyridine-6-carbonitrile]	610	3	
CC(C)Nc1cc(-n2ncc3cc(C#N)cnc32)ncc1-c1cn(C[C@H](C)O)nn1 [Example 65, (S)-1-(5-(1-(2-hydroxypropyl)-1H-1,2,3-triazol-4-yl)-4-(isopropylamino)pyridin-2-yl)-1H-pyrazolo[3,4-b]pyridine-5-carbonitrile]	420	9	
CC(C)Nc1cc(-n2cnc3cc(C#N)cnc32)ncc1-c1cn(C[C@H](C)O)nn1 [Example 69, (S)-3-(5-(1-(2-hydroxypropyl)-1H-1,2,3-triazol-4-yl)-4-(isopropylamino)pyridin-2-yl)-3H-imidazo[4,5-b]pyridine-6-carbonitrile]	1370	10	
CC(C)Nc1cc(-n2ncc3cc(C#N)c(N)nc32)ncc1-c1cn(C[C@H](C)O)nn1 [Example 70, (S)-6-amino-1-(5-(1-(2-hydroxypropyl)-1H-1,2,3-triazol-4-yl)-4-(isopropylamino)pyridin-2-yl)-1H-pyrazolo[3,4-b]pyridine-5-carbonitrile]	3960	5	
CC(C)Nc1cc(-n2ncc3cc(C#N)cnc32)ncc1-c1cn(C[C@@H](O)c2ccccc2)nn1 [Example 84, (S)-1-(5-(1-(2-hydroxy-2-phenylethyl)-1H-1,2,3-triazol-4-yl)-4-(isopropylamino)pyridin-2-yl)-1H-pyrazolo[3,4-b]pyridine-5-carbonitrile]	530	5	
CC(C)Nc1cc(-n2ncc3cc(C#N)cnc32)ncc1-c1cn([C@@H](CO)c2ccccc2)nn1 [Example 86, (R)-1-(5-(1-(2-hydroxy-1-phenylethyl)-1H-1,2,3-triazol-4-yl)-4-(isopropylamino)pyridin-2-yl)-1H-pyrazolo[3,4-b]pyridine-5-carbonitrile]	1770	18	
CC(C)(O)CCc1cn(-c2cnc(-n3ncc4cc(C#N)cnc43)cc2NC2CCC(O)CC2)nn1 (stereo not drawn) [Example 385, 1-(5-(4-(3-hydroxy-3-methylbutyl)-1H-1,2,3-triazol-1-yl)-4-(((1 s,4s)-4-hydroxycyclohexyl)amino)pyridin-2-yl)-1H-pyrazolo[3,4-b]pyridine-5-carbonitrile]	490		
CC(C)Nc1cc(-n2ncc3cc(C#N)cnc32)ncc1-c1cc([C@@H]2CCCCN2)on1 [Example 430, (S)-1-(4-(isopropylamino)-5-(5-(piperidin-2-yl)isoxazol-3-yl)pyridin-2-yl)-1H-pyrazolo[3,4-b]pyridine-5-carbonitrile]	470		
